Results on 13 molecules are retold here after ChEMBL document CHEMBL5532637, “Antimicrobial activity of natural and semi-synthetic carbazole alkaloids” (Eur J Med Chem, 2023).

In brackets after ≈: the same amount, converted by molar mass.

In data set [1] the test system is Candida albicans. Kind of data set: Antimicrobial activity against Candida albicans assessed as zone of inhibition incubated for 24 hrs by agar diffusion method. Format: functional. For orientation: A growth-free zone around the sample is the usual read-out of agar diffusion tests.
Data set [2] relates to Staphylococcus aureus. Kind of data set: Antimicrobial activity against Staphylococcus aureus NCIM 2120 assessed as zone of inhibition incubated for 24 hrs by agar diffusion method. In kind it is functional.
Data set [3] deals with Escherichia coli. The data set is described as follows: Antimicrobial activity against Escherichia coli NCIM 2065 assessed as zone of inhibition incubated for 24 hrs by agar diffusion method. In kind it is functional.
For data set [4], the system named is Proteus vulgaris. Kind of data set: Antimicrobial activity against Proteus vulgaris NCIM 2813 assessed as zone of inhibition incubated for 24 hrs by agar diffusion method. Format: functional.
In data set [5] the test system is Mycobacterium tuberculosis. Kind of data set: Antibacterial activity against Mycobacterium tuberculosis H37Rv assessed as inhibition of bacterial growth by two-fold serial dilution method. In kind it is functional.
A short description of data set [6]: Cytotoxicity against green monkey Vero cells. The conditions noted are these: green monkey (Chlorocebus sabaeus). In kind it is toxicity, cell-based.
The subject of data set [7] is Nakaseomyces glabratus. The data set is described as follows: Antifungal activity against Candida glabrata ATCC 90030 assessed as inhibition of fungal growth incubated for 24 hrs by microtiter plate reader assay. Format: functional.
Data set [8] relates to Mucor hiemalis. Kind of data set: Antifungal activity against Mucor hiemalis DSM 2656 assessed as inhibition of fungal growth incubated for 24 hrs by serial dilution method. In kind it is functional.
Data set [9] deals with Rhodotorula glutinis. The data set is described as follows: Antifungal activity against Rhodotorula glutinis DSM 10134 assessed as inhibition of fungal growth incubated for 24 hrs by serial dilution method. In kind it is functional.
Data set [10] relates to Mycolicibacterium smegmatis. The data set is described as follows: Antibacterial activity against Mycobacterium smegmatis DSM ATCC 700084 assessed as inhibition of bacterial growth incubated for 24 hrs by serial dilution method. Format: functional.
The test system of data set [11] is Schizosaccharomyces pombe. Kind of data set: Antifungal activity against Schizosaccharomyces pombe DSM 70572 assessed as inhibition of fungal growth incubated for 24 hrs by serial dilution method. In kind it is functional.
Data set [12] deals with Bacillus subtilis. Kind of data set: Antibacterial activity against Bacillus subtilis DSM 10 assessed as inhibition of bacterial growth incubated for 24 hrs by serial dilution method. Format: functional.
Data set [13] concerns Staphylococcus aureus. The data set is described as follows: Antibacterial activity against Staphylococcus aureus DSM 346 assessed as inhibition of bacterial growth incubated for 24 hrs by serial dilution method. In kind it is functional.
Data set [14] relates to Bacillus subtilis. Kind of data set: Antibacterial activity against Bacillus subtilis assessed as inhibition of bacterial growth by agar well diffusion method. Format: functional.
The test system of data set [15] is Pasteurella multocida. The data set is described as follows: Antibacterial activity against Pasteurella multocida assessed as inhibition of bacterial growth by agar well diffusion method. In kind it is functional.
Data set [16] has as its system Staphylococcus aureus. Kind of data set: Antibacterial activity against Staphylococcus aureus NRRL B-767 assessed as inhibition of bacterial growth incubated for 18 to 24 hrs by microbroth dilution method. Format: functional. The conditions noted are these: time 18-24 hrs.
Data set [17] concerns Bacillus subtilis. Kind of data set: Antibacterial activity against Bacillus subtilis NRS-744 assessed as inhibition of bacterial growth incubated for 18 to 24 hrs by microbroth dilution method. Format: functional. The conditions noted are these: time 18-24 hrs. For orientation: Broth dilution looks for growth in wells or tubes with falling amounts of substance.
Data set [18] deals with HeLa. Kind of data set: Cytotoxicity against human HeLa cells incubated for 48 hrs by sulforhodamine B assay. In kind it is functional.
Data set [19] relates to A549. Kind of data set: Cytotoxicity against human A549 cells incubated for 48 hrs by sulforhodamine B assay. Format: functional. For orientation: Sulforhodamine B stains cellular protein and so reports cell mass.
Data set [20] has as its system Saccharomyces cerevisiae. The data set is described as follows: Antifungal activity against Saccharomyces cerevisiae ATCC 9763 assessed as inhibition of fungal growth incubated for 24 hrs by microtiter plate reader assay. Format: functional.
The test system of data set [21] is Pichia kudriavzevii. The data set is described as follows: Antifungal activity against Candida krusei ATCC 6258 assessed as inhibition of fungal growth incubated for 24 hrs by microtiter plate reader assay. In kind it is functional.
In data set [22] the test system is Pseudomonas aeruginosa. The data set is described as follows: Antibacterial activity against Pseudomonas aeruginosa assessed as inhibition of bacterial growth by broth microdilution method. Format: functional.
For data set [23], the system named is Staphylococcus aureus. The data set is described as follows: Antibacterial activity against Staphylococcus aureus assessed as inhibition of bacterial growth by broth microdilution method. In kind it is functional.
The test system of data set [24] is Candida albicans. Kind of data set: Antifungal activity against Candida albicans clinical isolate Gu5 assessed as inhibition of fungal growth by broth microdilution method. In kind it is functional.
In data set [25] the test system is Candida albicans. The data set is described as follows: Antifungal activity against Candida albicans clinical isolate DSY296 assessed as inhibition of fungal growth by broth microdilution method. Format: functional.
Data set [26] has as its system Nakaseomyces glabratus. The data set is described as follows: Antifungal activity against Candida glabrata MTCC 3814 assessed as inhibition of fungal growth by broth microdilution method. In kind it is functional.
Data set [27] relates to Candida tropicalis. Kind of data set: Antifungal activity against Candida tropicalis MTCC 9038 assessed as inhibition of fungal growth by broth microdilution method. In kind it is functional.
In data set [28] the test system is Candida albicans. The data set is described as follows: Antifungal activity against Candida albicans clinical isolate DSY294 assessed as inhibition of fungal growth by broth microdilution method. Format: functional.
The subject of data set [29] is Pichia kudriavzevii. Kind of data set: Antifungal activity against Candida krusei MTCC 9215 assessed as inhibition of fungal growth by broth microdilution method. Format: functional.
For data set [30], the system named is Escherichia coli. Kind of data set: Antibacterial activity against Escherichia coli assessed as inhibition of bacterial growth by broth microdilution method. In kind it is functional.
For data set [31], the system named is Candida parapsilosis. The data set is described as follows: Antifungal activity against Candida parapsilosis MTCC 7043 assessed as inhibition of fungal growth by broth microdilution method. In kind it is functional. The conditions noted are these: Lodderomyces parapsilosis.
Data set [32] relates to Candida albicans. The data set is described as follows: Antifungal activity against Candida albicans clinical isolate Gu4 assessed as inhibition of fungal growth by broth microdilution method. In kind it is functional.
The subject of data set [33] is Klebsiella pneumoniae. The data set is described as follows: Antibacterial activity against Klebsiella pneumoniae assessed as inhibition of bacterial growth by broth microdilution method. In kind it is functional.
Data set [34] concerns Candida albicans. Kind of data set: Antifungal activity against Candida albicans SC5314 assessed as inhibition of fungal growth by broth microdilution method. In kind it is functional.
Data set [35] has as its system Candida albicans. The data set is described as follows: Antifungal activity against Candida albicans MTCC 3017 assessed as inhibition of fungal growth by broth microdilution method. Format: functional.
The test system of data set [36] is Cryptococcus neoformans. The data set is described as follows: Antifungal activity against Cryptococcus neoformans […] assessed as inhibition of fungal growth incubated for 24 to 48 hrs by CLSI protocol based broth microdilution method. Format: functional. The conditions noted are these: time 24-48 hrs.
The subject of data set [37] is Cryptococcus deuterogattii. Kind of data set: Antifungal activity against Cryptococcus gattii VGII WM178/08 assessed as inhibition of fungal growth incubated for 24 to 48 hrs by CLSI protocol based broth microdilution method. In kind it is functional, Cryptococcus bacillisporus. The conditions noted are these: time 24-48 hrs.
Data set [38] deals with Staphylococcus aureus. The data set is described as follows: Antibacterial activity against Staphylococcus aureus assessed as zone of inhibition by filter paper disk-agar diffusion method. Format: functional.
In data set [39] the test system is Mycobacterium tuberculosis. The data set is described as follows: Antibacterial activity against Mycobacterium tuberculosis assessed as inhibition of bacterial growth. Format: functional.
For data set [40], the system named is Bacillus cereus. Kind of data set: Antibacterial activity against Bacillus cereus assessed as inhibition of bacterial growth. In kind it is functional, organism-based.

For `Cn1c2ccccc2c2cc(/C=C/C(=O)c3ccc([N+](=O)[O-])cc3)ccc21`, the “inhibition zone (IZ)” value in [1] came out at 5 mm; in data set [2], 4.5 mm; in [3], 2.5 mm; in data set [4], 4 mm.
For `COc1ccc2[nH]c3c(OCc4ccccc4)cc(C)cc3c2c1`, the MIC90 (commonly an inhibitory concentration at the 90% level, which refers to growth in some studies and to a panel of isolates in others) in data set [5] was 31.7 µg/mL (≈ 99.9 µM). For the same molecule, the IC50 (commonly the concentration needed to halve the response being measured) in data set [6] was over 128 µM.
Take `FC(F)(F)Oc1ccc2c3c([nH]c2c1)C(NCCOc1ccc(Cl)cc1)CCC3` (stereo not given): in data set [7], the MIC50 (as a rule, the lowest concentration that inhibits either 50% of growth or 50% of the strains tested, depending on the study) worked out at 5.3 µM (≈ 2.25 µg/mL).
In the case of `Brc1ccc2[nH]c3c(c2c1)CCCC31CCCn2ccnc21` (stereo not given), the MIC in data set [8], in [9], in data set [10], in data set [11], in data set [12] and in [13] was 66.6 µM (≈ 23.7 µg/mL) in each case.
Turning to `C/C(=N/Nc1ccccc1)C1CCCc2c1n(C)c1c([N+](=O)[O-])cc([N+](=O)[O-])cc21` (stereo not given), the MIC in data set [14] and in [15] was 1.8 µg/mL (≈ 4.42 µM) throughout.
`CCn1c2ccccc2c2cc(NC(=O)COc3cccc4cccnc34)ccc21`: the minimum inhibitory concentration (MIC) in data set [16] and in data set [17] was 31.2 µg/mL (≈ 79 µM) each time.
With `CC(C)=CCc1ccc2c([nH]c3cc(O)c(C=O)cc32)c1O`, the values for the IC in data set [18] and in [19] were 1.91 µg/mL and 5.25 µg/mL, respectively.
Take `FC(F)(F)Oc1ccc2c3c([nH]c2c1)C(NCc1ccc(Br)cc1)CCC3` (stereo not given): the MIC50 was determined as 1.5 µM (≈ 0.659 µg/mL) in [20] and 4.7 µM (≈ 2.06 µg/mL) in data set [21].
With `COc1cc2c(cc1O)[nH]c1c3c(c(C)cc12)OC(C)(C)C=C3`, the MIC90 in data set [22] was over 100 µg/mL; in data set [23], 3.12 µg/mL (≈ 10.1 µM); in data set [24], 12.5 µg/mL (≈ 40.4 µM); in data set [25], 12.5 µg/mL (≈ 40.4 µM); in data set [26] it was 12.5 µg/mL (≈ 40.4 µM); in data set [27] it was 12.5 µg/mL (≈ 40.4 µM). In addition, the MIC90 is 12.5 µg/mL (≈ 40.4 µM) in [28]; 12.5 µg/mL (≈ 40.4 µM) in data set [29]; over 100 µg/mL in data set [30]; 12.5 µg/mL (≈ 40.4 µM) in data set [31]; 12.5 µg/mL (≈ 40.4 µM) in data set [32]; 3.12 µg/mL (≈ 10.1 µM) in [33]. Also, the MIC90 in data set [34] and in data set [35] was 12.5 µg/mL (≈ 40.4 µM) in each case.
`c1ccc2c(c1)[nH]c1ccccc12` [CARBAZOLE]: the minimum inhibitory concentration (MIC) in data set [36] and in [37] was 160 µg/mL (≈ 957 µM) each time.
With `COc1cc2c(cc1O)[nH]c1cc(O)c(C=O)cc12` [CLAULANSINE J], the “inhibition zone (IZ)” value in data set [38] worked out at 14.2 mm.
In the case of `Cc1cc2c([nH]c3ccc4c(c32)C=CC(C)(C)O4)c(-c2c(O)c(C)cc3c2[nH]c2ccc4c(c23)C=CC(C)(C)O4)c1O` [CLAUSENAWALLINE A], the MIC (usually the smallest concentration in the dilution series that meets the test's criterion for growth inhibition) in [39] was 12.5 µg/mL (≈ 22.5 µM).
For the molecule `Cc1cc2c([nH]c3ccccc32)c2c1OC(C)(C)C=C2` [GRINIMIBINE], the IC50 in [40] worked out at 3.4 µM.
